Patent publication US20260347373A1, “HETEROCYCLIC COMPOUNDS, COMPOSITIONS THEREOF, AND METHODS OF TREATMENT THEREWITH” (BeOne Medicines I GmbH, priority 2023, published 2026)

Assays:
WT KRAS = WT KRAS (Homo sapiens, UniProt P01116); experiment: KRAS WT Probe Displacement Assay (TR-FRET, GDP-loaded); assay type: binding; conditions: KRAS WT, read-out: KRAS^WT Probe Displacement Assay IC50
Source text: (§1) The synthetic routes of probe 1 and 2, which have been disclosed in PCT/CN2022/070676, are hereby incorporated herein.

KRAS G12D = KRAS G12D (Homo sapiens, UniProt P01116, G12D); experiment: KRAS G12D Probe Displacement Assay (TR-FRET, GDP-loaded); assay type: binding; conditions: KRAS G12D, read-out: KRAS^G12D Probe Displacement Assay IC50
Chain of KRAS G12D (P01116 1-188 isoform P01116-2 G12D): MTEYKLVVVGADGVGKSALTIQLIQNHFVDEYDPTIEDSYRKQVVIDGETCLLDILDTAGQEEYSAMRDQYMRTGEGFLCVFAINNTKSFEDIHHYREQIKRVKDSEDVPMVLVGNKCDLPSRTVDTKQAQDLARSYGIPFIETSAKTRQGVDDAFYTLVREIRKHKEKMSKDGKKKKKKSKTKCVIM
Source text: as §1

Chain of WT KRAS (P01116 1-188 isoform P01116-2): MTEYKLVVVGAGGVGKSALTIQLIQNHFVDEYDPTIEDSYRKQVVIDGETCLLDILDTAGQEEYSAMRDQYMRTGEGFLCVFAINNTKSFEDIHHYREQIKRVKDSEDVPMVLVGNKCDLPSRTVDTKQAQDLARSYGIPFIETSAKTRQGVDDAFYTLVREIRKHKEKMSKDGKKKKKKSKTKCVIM

SMILES	IC50 (WT KRAS)	IC50 (KRAS G12D)
C=C1CN2C[C@H](F)C[C@@]2(COc2nc3c4c(nc(-c5cc(N)cc(C)c5C(F)(F)F)c(F)c4n2)OCC[C@@H]2[C@@H]4CC[C@H](CN32)N4)C1 [Example 208, 3-((6aR,7S,10R)-1-fluoro-13-(((2R,7aR)-2-fluoro-6-methylenetetrahydro-1H-pyrrolizin-7a(5H)-yl)methoxy)-5,6,6a,7,8,9,10,11-octahydro-4-oxa-3,11a,12,14,15-pentaaza-7,10-methanocyclohepta[4,5]cycloocta[1,2,3-de]naphthalen-2-yl)-5-methyl-4-(trifluoromethyl)aniline]	0.3 to 3 nM	< 0.3 nM
C=C1CN2C[C@H](F)C[C@@]2(COc2nc3c4c(nc(-c5cc(N)cc(Cl)c5C(F)(F)F)c(F)c4n2)OCC[C@@H]2[C@@H]4CC[C@H](CN32)N4)C1 [Example 209, 3-chloro-5-((6aR,7S,10R)-1-fluoro-13-(((2R,7aR)-2-fluoro-6-methylenetetrahydro-1H-pyrrolizin-7a(5H)-yl)methoxy)-5,6,6a,7,8,9,10,11-octahydro-4-oxa-3,11a,12,14,15-pentaaza-7,10-methanocyclohepta[4,5]cycloocta[1,2,3-de]naphthalene-2-yl)-4-(trifluoromethyl)aniline]	3 to 1000 nM	< 0.3 nM
C=C1CN2C[C@H](F)C[C@]2(COc2nc3c4c(nc(-c5cc(N)cc(C)c5C(F)(F)F)c(F)c4n2)OCC[C@@H]2[C@@H]4CC[C@H](CN32)N4)C1 [Example 210, 3-((6aR,7S,10R)-1-fluoro-13-(((2R,7aS)-2-fluoro-6-methylenetetrahydro-1H-pyrrolizin-7a(5H)-yl)methoxy)-5,6,6a,7,8,9,10,11-octahydro-4-oxa-3,11a,12,14,15-pentaaza-7,10-methanocyclohepta[4,5]cycloocta[1,2,3-de]naphthalen-2-yl)-5-methyl-4-(trifluoromethyl)aniline]	3 to 1000 nM	< 0.3 nM
C=C1CN2C[C@H](F)C[C@]2(COc2nc3c4c(nc(-c5cc(N)cc(Cl)c5C(F)(F)F)c(F)c4n2)OCC[C@@H]2[C@@H]4CC[C@H](CN32)N4)C1 [Example 211, 3-chloro-5-((6aR,7aS,10R)-1-fluoro-13-(((2R,7aS)-2-fluoro-6-methylenetetrahydro-1H-pyrrolizin-7a(5H)-yl)methoxy)-5,6,6a,7,8,9,10,11-octahydro-4-oxa-3,11a,12,14,15-pentaaza-7,10-methanocyclohepta[4,5]cycloocta[1,2,3-de]naphthalen-2-yl)-4-(trifluoromethyl)aniline]	3 to 1000 nM	< 0.3 nM
C=C1CN2C[C@H]3C[C@H]3[C@]2(COc2nc3c4c(nc(-c5cc(N)cc(C)c5C(F)(F)F)c(F)c4n2)OCC[C@@H]2[C@@H]4CC[C@H](CN32)N4)C1 [Example 212, 3-((6aR,7S,10R)-1-fluoro-13-(((1aS,6bR)-5-methylenehexahydrocyclopropa[a]pyrrolizin-6a(4H)-yl)methoxy)-5,6,6a,7,8,9,10,11-octahydro-4-oxa-3,11a,12,14,15-pentaaza-7,10-methanocyclohepta[4,5]cycloocta[1,2,3-de]naphthalen-2-yl)-5-methyl-4-(trifluoromethyl)aniline]	3 to 1000 nM	< 0.3 nM
Cc1cc(N)cc(-c2nc3c4c(nc(OC[C@@]56C[C@H](F)CN5C[C@H](F)C6)nc4c2F)N2C[C@H]4CC[C@H](N4)[C@H]2CCO3)c1C(F)(F)F [Example 213, 3-((6aR,7S,10R)-13-(((2R,6S,7as)-2,6-difluorotetrahydro-1H-pyrrolizin-7a(5H)-yl)methoxy)-1-fluoro-5,6,6a,7,8,9,10,11-octahydro-4-oxa-3,11a,12,14,15-pentaaza-7,10-methanocyclohepta[4,5]cycloocta[1,2,3-de]naphthalen-2-yl)-5-methyl-4-(trifluoromethyl)aniline]	3 to 1000 nM	0.3 to 3 nM
CO[C@H]1CN2C[C@H](F)C[C@]2(COc2nc3c4c(nc(-c5cc(N)cc(C)c5C(F)(F)F)c(F)c4n2)OCC[C@@H]2[C@@H]4CC[C@H](CN32)N4)C1 [Example 214, 3-((6aR,7S,10R)-1-fluoro-13-(((2R,6R,7aS)-2-fluoro-6-methoxytetrahydro-1H-pyrrolizin-7a(5H)-yl)methoxy)-5,6,6a,7,8,9,10,11-octahydro-4-oxa-3,11a,12,14,15-pentaaza-7,10-methanocyclohepta[4,5]cycloocta[1,2,3-de]naphthalen-2-yl)-5-methyl-4-(trifluoromethyl)aniline]	3 to 1000 nM	< 0.3 nM
CO[C@H]1CN2C[C@H](F)C[C@]2(COc2nc3c4c(nc(-c5cc(N)cc(Cl)c5C(F)(F)F)c(F)c4n2)OCC[C@@H]2[C@@H]4CC[C@H](CN32)N4)C1 [Example 215, 3-chloro-5-((6aR,7S,10R)-1-fluoro-13-(((2R,6R,7aS)-2-fluoro-6-methoxytetrahydro-1H-pyrrolizin-7a(5H)-yl)methoxy)-5,6,6a,7,8,9,10,11-octahydro-4-oxa-3,11a,12,14,15-pentaaza-7,10-methanocyclohepta[4,5]cycloocta[1,2,3-de]naphthalen-2-yl)-4-(trifluoromethyl)aniline]	3 to 1000 nM	< 0.3 nM
CO[C@@H]1CN2C[C@H](F)C[C@]2(COc2nc3c4c(nc(-c5cc(N)cc(C)c5C(F)(F)F)c(F)c4n2)OCC[C@@H]2[C@@H]4CC[C@H](CN32)N4)C1 [Example 216, 3-((6aR,7S,10R)-1-fluoro-13-(((2R,6S,7aS)-2-fluoro-6-methoxytetrahydro-1H-pyrrolizin-7a(5H)-yl)methoxy)-5,6,6a,7,8,9,10,11-octahydro-4-oxa-3,11a,12,14,15-pentaaza-7,10-methanocyclohepta[4,5]cycloocta[1,2,3-de]naphthalen-2-yl)-5-methyl-4-(trifluoromethyl)aniline]	3 to 1000 nM	< 0.3 nM
CO[C@@H]1CN2C[C@H](F)C[C@]2(COc2nc3c4c(nc(-c5cc(N)cc(Cl)c5C(F)(F)F)c(F)c4n2)OCC[C@@H]2[C@@H]4CC[C@H](CN32)N4)C1 [Example 217, 3-chloro-5-((6aR,7S,10R)-1-fluoro-13-(((2R,6S,7aS)-2-fluoro-6-methoxytetahydro-1H-pyrrolizin-7a(5H)-yl)methoxy)-5,6,6a,7,8,9,10,11-octahydro-4-oxa-3,11a,12,14,15-pentaaza-7,10-methanocyclohepta[4,5]cycloocta[1,2,3-de]naphthalen-2-yl)-4-(trifluoromethyl)aniline]	3 to 1000 nM	< 0.3 nM
[2H]C([2H])([2H])N1CC[C@H](OC)[C@H]1[C@H](C)Oc1nc2c3c(nc(-c4cc(N)cc(Cl)c4C(F)(F)F)c(F)c3n1)OCC[C@@H]1[C@@H]3CC[C@H](CN21)N3 [Example 218, 3-chloro-5-((6aR,7S,10R)-1-fluoro-13-((S)-1-((2R,3S)-3-methoxy-1-(methyl-d3)pyrrolidin-2-yl)ethoxy)-5,6,6a,7,8,9,10,11-octahydro-4-oxa-3,11a,12,14,15-pentaaza-7,10-methanocyclohepta[4,5]cycloocta[1,2,3-de]naphthalen-2-yl)-4-(trifluoromethyl)aniline]	0.3 to 3 nM	< 0.3 nM
[2H]C([2H])([2H])N1C[C@H](OC)C[C@H]1[C@H](C)Oc1nc2c3c(nc(-c4cc(N)cc(C)c4C(F)(F)F)c(F)c3n1)OCC[C@@H]1[C@@H]3CC[C@H](CN21)N3 [Example 219, 3-((6aR,7S,10R)-1-fluoro-13-((S)-1-((2S,4R)-4-methoxy-1-(methyl-d3)pyrrolidin-2-yl)ethoxy)-5,6,6a,7,8,9,10,11-octahydro-4-oxa-3,11a,12,14,15-pentaaza-7,10-methanocyclohepta[4,5]cycloocta[1,2,3-de]naphthalen-2-yl)-5-methyl-4-(trifluoromethyl)aniline]	3 to 1000 nM	< 0.3 nM
[2H]C([2H])([2H])N1C[C@H](OC)C[C@H]1[C@H](C)Oc1nc2c3c(nc(-c4cc(N)cc(Cl)c4C(F)(F)F)c(F)c3n1)OCC[C@@H]1[C@@H]3CC[C@H](CN21)N3 [Example 220, 3-chloro-5-((6aR,7S,10R)-1-fluoro-13-((S)-1-((2S,4R)-4-methoxy-1-(methyl-d3)pyrrolidin-2-yl)ethoxy)-5,6,6a,7,8,9,10,11-octahydro-4-oxa-3,11a,12,14,15-pentaaza-7,10-methanocyclohepta[4,5]cycloocta[1,2,3-de]naphthalen-2-yl)-4-(trifluoromethyl)aniline]	3 to 1000 nM	< 0.3 nM
[2H]C([2H])([2H])N1C[C@H](F)C[C@H]1[C@H](C)Oc1nc2c3c(nc(-c4cc(N)cc(C)c4C(F)(F)F)c(F)c3n1)OCC[C@@H]1[C@@H]3CC[C@H](CN21)N3 [Example 221, 3-((6aR,7S,10R)-1-fluoro-13-((S)-1-((2S,4R)-4-fluoro-1-(methyl-d3)pyrrolidin-2-yl)ethoxy)-5,6,6a,7,8,9,10,11-octahydro-4-oxa-3,11a,12,14,15-pentaaza-7,10-methanocyclohepta[4,5]cycloocta[1,2,3-de]naphthalen-2-yl)-5-methyl-4-(trifluoromethyl)aniline]	3 to 1000 nM	< 0.3 nM
CCN1C[C@H](F)C[C@H]1[C@H](C)Oc1nc2c3c(nc(-c4cc(N)cc(C)c4C(F)(F)F)c(F)c3n1)OCC[C@@H]1[C@@H]3CC[C@H](CN21)N3 [Example 222, 3-((6aR,7S,10R)-13-((S)-1-((2S,4R)-1-ethyl-4-fluoropyrrolidin-2-yl)ethoxy)-1-fluoro-5,6,6a,7,8,9,10,11-octahydro-4-oxa-3,11a,12,14,15-pentaaza-7,10-methanocyclohepta[4,5]cycloocta[1,2,3-de]naphthalen-2-yl)-5-methyl-4-(trifluoromethyl)aniline]	3 to 1000 nM	< 0.3 nM
Cc1cc(N)cc(-c2nc3c4c(nc(O[C@@H](C)[C@@H]5[C@H]6C[C@H]6CN5C)nc4c2F)N2C[C@H]4CC[C@H](N4)[C@H]2CCO3)c1C(F)(F)F [Example 223, 3-((6aR,7S,10R)-1-fluoro-13-((S)-1-((1S,2S,5R)-3-methyl-3-azabicyclo[3.1.0]hexan-2-yl)ethoxy)-5,6,6a,7,8,9,10,11-octahydro-4-oxa-3,11a,12,14,15-pentaaza-7,10-methanocyclohepta[4,5]cycloocta[1,2,3-de]naphthalen-2-yl)-5-methyl-4-(trifluoromethyl)aniline]	3 to 1000 nM	< 0.3 nM
